From ChEMBL document CHEMBL1201862, “PubChem BioAssay data set” (2004)
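Following 48 hours of exposure in 96-well plates, responses at five concentrations were used to interpolate endpoints linearly. GI50 = concentration required for 50% inhibition of growth.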 The source made the active and inactive calls. No stated cut-off is given here; in the data, active = GI50 up to about 1.1 µM and inactive = higher.

Experiments:
Experiment in all cases: growth of human tumour cells (NCI), 48 h
[1] = tested on: HCT-116
[2] = tested on: A498
[3] = tested on: RPMI-8226
[4] = tested on: HCT-15
[5] = tested on: HOP-62
[6] = tested on: CCRF-CEM
[7] = tested on: SK-MEL-28
[8] = tested on: SF-268
[9] = tested on: IGROV-1
[10] = tested on: NCI-H460
[11] = tested on: SK-MEL-5
[12] = tested on: CAKI-1
[13] = tested on: SW-620
[14] = tested on: SNB-75
[15] = tested on: TK-10
[16] = tested on: A549
[17] = tested on: SR
[18] = tested on: OVCAR-8
[19] = tested on: HOP-92
[20] = tested on: NCI/ADR-RES

| Structure (SMILES) | GI50 [1] | GI50 [2] | GI50 [3] | GI50 [4] [µM] | GI50 [5] | GI50 [6] | GI50 [7] | GI50 [8] | GI50 [9] | GI50 [10] | GI50 [11] | GI50 [12] | GI50 [13] | GI50 [14] | GI50 [15] | GI50 [16] | GI50 [17] | GI50 [18] | GI50 [19] | GI50 [20] |
| --- | --- | --- | --- | --- | --- | --- | --- | --- | --- | --- | --- | --- | --- | --- | --- | --- | --- | --- | --- | --- |
| Cc1ccc(S(=O)(=O)Nc2cccc3c(=O)nc[nH]c23)cc1 | 99.3 µM (inactive) | > 100 µM (inactive) | 17.8 µM (inactive) | 61.5 | > 100 µM (inactive) | 37.2 µM (inactive) | > 100 µM (inactive) | > 100 µM (inactive) | > 100 µM (inactive) | > 100 µM (inactive) | 43.9 µM (inactive) | > 100 µM (inactive) | > 100 µM (inactive) | > 51.1 µM (inactive) | > 100 µM (inactive) | 72.8 µM (inactive) | 10.7 µM (inactive) | > 100 µM (inactive) | > 39.6 µM (inactive) |  |
| O=C1NC(=S)NC(=O)C1C(c1ccc([N+](=O)[O-])cc1)C1C(=O)NC(=S)NC1=O.c1ccncc1 | > 100 µM (inactive) | > 100 µM (inactive) | > 100 µM (inactive) | > 100 | > 100 µM (inactive) | > 100 µM (inactive) | > 100 µM (inactive) |  | > 100 µM (inactive) | > 100 µM (inactive) | > 100 µM (inactive) | > 100 µM (inactive) | > 100 µM (inactive) |  | > 100 µM (inactive) | > 100 µM (inactive) |  | > 100 µM (inactive) | > 100 µM (inactive) | > 100 µM (inactive) |
| CCN(c1ccccc1)[C@H]1C(=O)N(c2ccc([N+](=O)[O-])cc2)[C@H]1c1ccc(OC)cc1 | > 100 µM (inactive) | 80.7 µM (inactive) | > 100 µM (inactive) |  |  | 39.1 µM (inactive) | > 100 µM (inactive) | > 100 µM (inactive) | > 100 µM (inactive) | > 100 µM (inactive) | > 100 µM (inactive) | 73.3 µM (inactive) | > 100 µM (inactive) | 46.9 µM (inactive) | > 100 µM (inactive) | > 100 µM (inactive) | > 100 µM (inactive) | > 100 µM (inactive) | 15.8 µM (inactive) |  |
| CC(C)C(=O)/C=C/c1ccc(Cl)cc1 | 2.67 µM (inactive) | > 10 µM (inactive) | 5.37 µM (inactive) |  |  | 4.19 µM (inactive) | > 10 µM (inactive) | 23.8 µM (inactive) | 21.6 µM (inactive) | 15.7 µM (inactive) | 8.57 µM (inactive) |  | 3.99 µM (inactive) | 15.8 µM (inactive) |  | 21.7 µM (inactive) | 4.84 µM (inactive) |  | 16.7 µM (inactive) |  |
| NC(CCCCNC(=O)OCc1ccccc1)C(=O)NC(CCCCNC(=O)OCc1ccccc1)C(=O)ON1C(=O)CCC1=O (stereo not drawn) | > 100 µM (inactive) | > 100 µM (inactive) | > 100 µM (inactive) | > 100 | > 100 µM (inactive) | > 100 µM (inactive) | > 100 µM (inactive) |  | > 100 µM (inactive) | > 100 µM (inactive) | > 100 µM (inactive) |  | > 100 µM (inactive) | 27.2 µM (inactive) | > 100 µM (inactive) | > 100 µM (inactive) | > 100 µM (inactive) | > 100 µM (inactive) | > 100 µM (inactive) |  |
| COc1cc(C2c3cc4c(cc3[C@@H](N(C)c3ccc(N(C)C)cc3)C3COC(=O)C23)OCO4)cc(OC)c1O (stereo partly drawn) | 0.399 µM (active) | 26.8 µM (inactive) | 0.923 µM (active) | 0.449 | 1.75 µM (inactive) | 0.343 µM (active) | 1.25 µM (inactive) | 0.343 µM (active) | 0.536 µM (active) | 0.352 µM (active) | 0.383 µM (active) | 0.491 µM (active) | 0.184 µM (active) | 4.34 µM (inactive) | 18.5 µM (inactive) |  | 0.427 µM (active) | 0.365 µM (active) | 1.99 µM (inactive) |  |
| CCOC(=O)C(Cc1ccc(N=NN(C)C)cc1)NC(=O)CC1c2ccccc2-c2ccccc21 (stereo not drawn) | > 100 µM (inactive) | > 100 µM (inactive) | 41.6 µM (inactive) | > 100 | > 100 µM (inactive) | 62.8 µM (inactive) | > 100 µM (inactive) | > 100 µM (inactive) | 69.8 µM (inactive) | 71.6 µM (inactive) | 57 µM (inactive) | > 100 µM (inactive) | > 100 µM (inactive) | > 100 µM (inactive) | > 100 µM (inactive) | 81.7 µM (inactive) | 48.9 µM (inactive) | > 100 µM (inactive) |  |  |
| Cc1ccccc1NC(=N)Nc1ccccc1C | > 100 µM (inactive) | > 100 µM (inactive) | > 100 µM (inactive) | > 100 | > 100 µM (inactive) | > 100 µM (inactive) | > 100 µM (inactive) | > 100 µM (inactive) | > 100 µM (inactive) | > 100 µM (inactive) | > 100 µM (inactive) | > 100 µM (inactive) | > 100 µM (inactive) | 54.6 µM (inactive) | > 100 µM (inactive) | > 100 µM (inactive) |  | > 100 µM (inactive) |  | > 100 µM (inactive) |
